# Measured values as given in patent publication US6608032B1, “Medicinal compositions” (Takara Shuzo Co., Ltd., priority 1999, dated 2003).
# How the values were obtained:
# heme oxygenase 1 protein = assay: Heme oxygenase 1 induction in RAW264.7 cells (Western blot); type: cell-based; set-up: key: − represents no band observed; increase in the intensity of the band is represented as follows:+−<+<++; increase in the intensity of the band is represented as follows:+−<+<++; increase in the intensity of the band is represented as follows:+−<+<++; conditions: positive control, 5 μl of 3 mM solution in dimethyl sulfoxide per 5 ml well; 15 hours
# Protocol: RAW264.7 cells (ATCC TIB 71) were suspended in Dulbecco's modified Eagle's medium (Bio Whittaker, 12-604F) containing 10% fetal calf serum (Gibco) at a concentration of 3×10^5 cells/ml. 5 ml of the suspension was added to each well of a 6-well microtiter plate and the plate was incubated at 37° C. overnight in the presence of 5% CO2. 50 μl of a solution containing agarobiose or agarohexaose in Referential Example 1 at a concentration of 20 mM, 10 mM or 5 mM in water was added to the well. The plate was incubated for 15 hours. A positive control for heme oxygenase 1 induction in which 5 μl of 3 mM solution of 15-deoxy-Δ12,14 prostaglandin J2 (Cayman Chemical, 18570) in dimethyl sulfoxide was added, and a negative control in which water was added were provided. The cells were recovered by detaching the cells from the plate using a scraper and suspended in 0.1 M tris-HCl buffer (pH 7.5) containing 0.05 mM pepstatin A (Sigma, P5318), 0.2 mM leupeptin (Sigma, L2884), 1 mM phenylmethylsulfonyl fluoride (Nacalai Tesque, 273-27), 10 mm ethylenediaminetetraacetic acid disodium salt and 0.1% Triton X-100. A supernatant obtained by centrifuging the suspension after freezing and thawing was used as a protein fraction. The content of protein in the protein fraction was determined using Micro BCA Protein Assay Reagent (a product of Pierce sold by Takara Shuzo, P7411). A sample from the protein fraction prepared as described above was mixed with an equal volume of 0.125 M tris-hydrochloride buffer (pH 6.8) containing 4% sodium lauryl sulfate (SDS), 2% 2-mercaptoethanol, 0.001% Bromophenol Blue and 20% glycerol. After treatment at 100° C. for 5 minutes, a portion corresponding to 10 μg of protein was loaded on 12.5% SDS-polyacrylamide gel and electrophoresed at a constant current of 20 mA. After electrophoresis, the gel was transferred to a PVDF membrane (Millipore, IPVH000 10) at a constant voltage of 15 V for 25 minutes using a blotting buffer (containing 48 mM tris, 39 mM glycine, 20% methanol and 0.0375% SDS) and Trans-Blot SD Cell Semi-Dry blotting apparatus (Bio-Rad) according to the attached protocol. After transferring, the PVDF membrane was blocked in a solution of Block Ace (Dainippon Pharmaceutical, UK-B25) at 4° C. overnight. After blocking, the membrane washed three times in phosphate buffered saline containing 0.1% Tween 20 for 15 minutes with gentle shaking. The membrane was reacted in phosphate buffered saline containing 10% Block Ace, 0.1% Tween 20 and 200 ng/ml of anti-heme oxygenase 1 antibody (N-19; Santa Cruz, sc-7696) at room temperature for 1 hour with gentle shaking, and then washed three times in phosphate buffered saline containing 0.1% Tween 20 for 15 minutes with gentle shaking. The membrane was reacted in phosphate buffered saline containing 10% Block Ace, 0.1% Tween 20 and 0.1% peroxidase-labeled rabbit anti-goat IgG (H+L) antibody (Zymed, 61-1620) at room temperature for 1 hour with gentle shaking, and then washed five times in phosphate buffered saline containing 0.1% Tween 20 for 15 minutes with gentle shaking. The PVDF membrane was stained using Western Blot Chemiluminescence Reagent Plus (a product of NEN Life Science Products sold by Daiichi Pure Chemicals, NEL103) according to the attached protocol and exposed to an X-ray film (Kodak, CAT165 1454). After exposure, the film was developed using FPM800 (Fuji Film).
# The intensity of the band depended on the concentration of agarobiose or agarohexaose. In the table, the intensity of the band for heme oxygenase 1 protein is expressed by the mark+. Specifically, − represents no band observed, and increase in the intensity of the band is represented as follows:+−<+<++.
# α-glucosidase = α-glucosidase inhibition with p-nitrophenyl-α-D-glucopyranoside; type: biochemical, S. cerevisiae
# Protocol: (1) An α-glucosidase activity was measured by allowing α-glucosidase to act on p-nitrophenyl-α-D-glucopyranoside (a chromogenic substrate) and calorimetrically quantifying 4-nitrophenol released by hydrolysis.
# 10 μl of α-glucosidase solution [40 mU/ml, derived from S. cerevisiae, Sigma, dissolved in 10 mM phosphate buffer (pH 7.2 at 37° C.)] and 10 μl of a solution containing a test sample dissolved in 10 mM phosphate buffer (pH 7.2 at 37° C.) were mixed. 80 μl of a 1.5 mg/ml substrate solution [Sigma, dissolved in 10 mM phosphate buffer (pH 7.2 at 37° C.)] was added thereto to initiate the reaction. After reacting at 37° C. for 40 minutes, the absorbance at 410 nm was measured using Shimadzu uv2200. The remaining activity therein was calculated defining the activity observed without the addition of test sample as 100%.
# Agarobiose, agarotetraose, agarohexaose and agarooctaose used as test samples were those prepared in Referential Example 1. Commercially available products of anhydrogalactose (Funakoshi), neoagarobiose (Sigma), neoagarotetraose (Funakoshi) and neoagarohexaose (Funakoshi) were used.
# RAW264.7 cells = assay: Prostaglandin E2 generation by crude enzyme fraction of RAW264.7 cells pre-treated with sample and LPS; type: cell-based; conditions: cells treated with 200 μl of 10 mM sample per 20 ml, 5 hours before LPS
# Protocol: (1) RAW264.7 cells (ATCC TIB 71) were suspended in Dulbecco's modified Eagle's medium (Bio Whittaker, 12-604F) containing 10% fetal calf serum (Gibco) at a concentration of 1×10^6 cells/ml. 20 ml of the suspension was added to a 10-cm Petri dish and the dish was incubated at 37° C. overnight in the presence of 5% CO2. 200 μl of a solution containing agarohexaose or DGE (obtained in Example 15-(2) below) at a concentration of 10 mM in water was added to the dish. The dish was incubated for 5 hours. 200 μl of a solution containing lipopolysaccharide (LPS, Sigma, L-2012) at a concentration of 100 μg/ml in water was added thereto. The dish was incubated for additional 12 hours. As a control, 200 μL of water was added in place of the sample. The cells were recovered by detaching the cells from the plate using a scraper and suspended in 0.1 M tris buffer (pH 8.0) containing 1 μg/ml pepstatin A (Sigma, P5318), 1 μg/ml leupeptin (Sigma, L2884) and 1 mM phenylmethylsulfonyl fluoride (Nacalai Tesque, 273-27). The cell membrane was destroyed by sonication. A supernatant collected by centrifugation was used as a crude enzyme fraction. The content of protein in the crude enzyme fraction was determined using Micro BCA Protein Assay Reagent (a product of Pierce sold by Takara Shuzo, P7411). 2.5 μL of 200 mM aqueous solution of glutathione (Nacalai Tesque, 170-50), 2.5 μL of a suspension containing L-adrenaline (Nacalai Tesque, 010-04) at a concentration of 200 mM in water, and 1 μL of 3 mM solution of arachidonic acid (Cayman, 90010.1) or 1 μL of 100 μg/mL solution of prostaglandin H2 (Cayman, 17020) were added to 100 μL of the sample from the crude enzyme fraction prepared as described above. The mixture was reacted at 37° C. for 30 minutes. The reaction was stopped by heating at 100° C. for 2 minutes. The content of prostaglandin E2 in the reaction mixture was measured using Prostaglandin E2 ELISA Kit (Neogen, 404110).
# [1] = tested on: enzymes involved in the synthesis of prostaglandin E2 from arachidonic acid; assay: Prostaglandin E2 generation from arachidonic acid, sample added directly to crude enzyme fraction; type: biochemical; conditions: 1 μL of 100 mM agarobiose, 100 mM agarohexaose, 10 mM DGE or 13 mM nimesulide added to 100 μL crude enzyme fraction; FIG. 15
# Protocol: 2.5 μL of 200 mM aqueous solution of glutathione, 2.5 μL of a suspension containing L-adrenaline at a concentration of 200 mM in water, and 1 μL of 100 mM aqueous solution of agarobiose, 100 mM aqueous solution of agarohexaose or 10 mM aqueous solution of DGE as a sample were added to 100 μL of the control sample from the crude enzyme fraction prepared in Example 15. 1 μL of water was added as a negative control. 1 μL of 13 mM nimesulide (Cayman, 70640) solution was added as a positive control. 1 μL of 3 mM arachidonic acid solution was then added to start the reaction. The mixture was reacted at 37° C. for 5 minutes. The reaction was stopped by heating at 100° C. for 2 minutes. The content of prostaglandin E2 in the reaction mixture was measured using Prostaglandin E2 ELISA Kit.
Compound,Intensity of band for heme oxygenase 1 protein (heme oxygenase 1 protein),Activity of inhibiting α-glucosidase (% remaining activity) (α-glucosidase; 5 μM) [%],Activity of inhibiting α-glucosidase (% remaining activity) (α-glucosidase; 50 μM) [%],Activity of inhibiting α-glucosidase (% remaining activity) (α-glucosidase; 500 μM) [%],Activity of inhibiting α-glucosidase (% remaining activity) (α-glucosidase; 1000 μM) [%],Activity of inhibiting α-glucosidase (% remaining activity) (α-glucosidase; 5000 μM) [%],"production of prostaglandin E2, arachidonic acid added (RAW264.7 cells; FIG. 13)","production of prostaglandin E2, prostaglandin H2 added (RAW264.7 cells; FIG. 14)",production of prostaglandin E2 from arachidonic acid [1]
"CCCCC/C=C/C=C1/C(=O)C=C[C@@H]1C/C=C\CCCC(=O)O [15-deoxy-Δ12,14 prostaglandin J2, reference compound]",+,–,–,–,–,–,–,–,–
"OC1O[C@@H]2CO[C@@H]([C@H]2O)[C@H]1O (stereo partly drawn) [Anhydrogalactose, 3,6-anhydrogalactopyranose]",–,100,100,100,100,100,–,–,–
"O=C1C=CC(CO)OC1O [DGE, L-glycero-1,5-epoxy-1αβ, 6-dihydroxy-cis-hex-3-en-2-one]",–,–,–,–,–,–,suppressed as compared with the control,suppressed as compared with the control,not suppressed
"OC[C@H]1OC(O)[C@H](O)[C@@H](O[C@@H]2O[C@H]3CO[C@@H]([C@@H]2O)[C@@H]3O)[C@H]1O (stereo partly drawn) [Neoagarobiose, neoagarobiose, reference compound]",–,100,100,100,100,100,–,–,–
"OC[C@H]1O[C@@H](O)[C@H](O)[C@@H](O[C@@H]2O[C@H]3CO[C@@H]([C@@H]2O)[C@@H]3O[C@@H]2O[C@H](CO)[C@H](O)[C@H](O[C@@H]3O[C@H]4CO[C@@H]([C@@H]3O)[C@@H]4O[C@@H]3O[C@H](CO)[C@H](O)[C@H](O[C@@H]4O[C@H]5CO[C@@H]([C@@H]4O)[C@@H]5O)[C@H]3O)[C@H]2O)[C@H]1O [Neoagarohexaose, neoagarohexaose, reference compound]",–,100,100,93,71,8,–,–,–
"OC[C@H]1O[C@@H](O)[C@H](O)[C@@H](O[C@@H]2O[C@H]3CO[C@@H]([C@@H]2O)[C@@H]3O[C@@H]2O[C@H](CO)[C@H](O)[C@H](O[C@@H]3O[C@H]4CO[C@@H]([C@@H]3O)[C@@H]4O)[C@H]2O)[C@H]1O [Neoagarotetraose, neoagarotetraose, reference compound]",–,100,93,89,76,42,–,–,–
"CS(=O)(=O)Nc1ccc([N+](=O)[O-])cc1Oc1ccccc1 [nimesulide, reference compound]",–,–,–,–,–,–,–,–,suppressed
agarooctaose,–,91,90,32,26,11,–,–,–
